# Source: patent publication US7138246B2, “Methods for identifying or screening for agents that modulate 17β-HSD3” (Bristol-Myers Squibb Company, priority 2004, dated 2006)
# Tests used:
# AR = target: T1, AR (Homo sapiens, UniProt P10275, Q868H); test: testosterone-stimulated parental MDA-MB453 (direct effects on AR); assay type: cell-based
# T1 construct: endogenous in cells; host or cells: parental MDA-MB453
# T1 sequence (P10275 1-920 Q868H): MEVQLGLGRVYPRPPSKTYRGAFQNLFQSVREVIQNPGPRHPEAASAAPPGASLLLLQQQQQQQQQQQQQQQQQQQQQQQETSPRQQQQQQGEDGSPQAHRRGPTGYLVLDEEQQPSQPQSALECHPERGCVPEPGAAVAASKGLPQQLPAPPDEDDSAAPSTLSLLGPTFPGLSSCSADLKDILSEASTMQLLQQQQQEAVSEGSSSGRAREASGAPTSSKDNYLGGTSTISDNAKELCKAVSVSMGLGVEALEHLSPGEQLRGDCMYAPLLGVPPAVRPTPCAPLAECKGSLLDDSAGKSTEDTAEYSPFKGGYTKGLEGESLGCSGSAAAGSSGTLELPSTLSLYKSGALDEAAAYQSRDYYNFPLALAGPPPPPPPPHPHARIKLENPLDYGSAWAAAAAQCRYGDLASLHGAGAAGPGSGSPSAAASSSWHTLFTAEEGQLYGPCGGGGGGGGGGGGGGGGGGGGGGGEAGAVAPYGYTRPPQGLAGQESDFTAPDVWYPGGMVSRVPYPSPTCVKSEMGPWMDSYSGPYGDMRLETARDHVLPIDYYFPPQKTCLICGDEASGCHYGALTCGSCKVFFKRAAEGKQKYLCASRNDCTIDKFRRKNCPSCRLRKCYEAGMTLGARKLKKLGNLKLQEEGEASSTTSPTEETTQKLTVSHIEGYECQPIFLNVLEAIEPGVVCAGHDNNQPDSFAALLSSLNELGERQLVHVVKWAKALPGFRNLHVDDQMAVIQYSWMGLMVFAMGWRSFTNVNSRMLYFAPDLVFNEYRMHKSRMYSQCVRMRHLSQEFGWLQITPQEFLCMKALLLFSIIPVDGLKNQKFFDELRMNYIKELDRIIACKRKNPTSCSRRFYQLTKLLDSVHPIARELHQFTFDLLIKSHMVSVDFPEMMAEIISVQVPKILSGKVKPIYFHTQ
# 17β-HSD3 = target: T2, 17β-HSD3 (Homo sapiens, UniProt P37058); test: TLC assay of androstenedione to testosterone conversion in Shinogi-17β-HSD3 cells; assay type: cell-based; settings: Shinogi-17β-HSD3 cells incubated with {3H}-androstenedione; read-out: IC50 estimated by TLC assay
# T2 sequence (P37058 1-310): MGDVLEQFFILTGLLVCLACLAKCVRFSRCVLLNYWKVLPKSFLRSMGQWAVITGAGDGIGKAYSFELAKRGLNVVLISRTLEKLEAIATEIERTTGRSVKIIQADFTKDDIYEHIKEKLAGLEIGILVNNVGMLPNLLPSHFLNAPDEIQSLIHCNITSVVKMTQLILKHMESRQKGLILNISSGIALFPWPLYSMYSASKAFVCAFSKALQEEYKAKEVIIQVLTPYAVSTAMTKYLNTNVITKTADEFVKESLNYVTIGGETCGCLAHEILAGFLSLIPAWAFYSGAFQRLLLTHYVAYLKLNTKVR
# Procedure: Cells were plated in 24-well tissue culture plates at 5×10^4 cells per well in their appropriate media. After allowing the cells to adhere for 24 hours, the media was changed to contain 10% cFBS (charcoal treated FBS) (300 μL) per well and 0.5μ Ci of the radiolabeled hormones were added to each well. After 3 hours, the supernatant was removed and 500 μL of extraction buffer (3 parts Ethyl Acetate: 1 part Acetone) was added to each sample and vortexed extensively. The organic layer was carefully removed and dried down in siliconized 1.5 mL microfuge tubes (National Scientific Supply Co.). […] The BAS screens were then read using a Fujifilm PhosphoImager FLA-2000 and spots were quantitated using the Fujifilm MacBas imaging/densitometry program.
# The characterization of breast and prostate tumor cell lines for the 17β-HSD activities enabled the identification of cells which could be engineered for preferred 17β-HSD3 activity to monitor the cellular effects of inhibitors. […] In addition, 17β-HSD mRNA was not detected at appreciable levels in these cells by RT-PCR (data not shown). […]
# To confirm that this class of compounds was inhibiting 17β-HSD3, Shinogi-17β-HSD3 cells incubated with {3H}-androstenedione were analyzed by TLC assay following 2-[(3-chloro-4-hydroxybenzoyl)amino]-N-[2-(2-methoxyphenyl)ethyl]-5-phenoxybenzamide treatment.
# [1] = tested on: testosterone biosynthesis; test: testosterone levels in intact rats; assay type: in vivo; settings: p.o., over 14 days, FIG. 6
# Procedure: Intact rats were administered p.o. the indicated doses of 18β-glycyrrhetinic acid over 14 days and testosterone levels were determined.
smiles,measurement,setting,value
"C[C@]12C=CC(=O)C=C1C(=O)C[C@@H]1[C@@H]2CC[C@]2(C)C(=O)CC[C@@H]12 [1,4-androstadiene-1,6,17-trione]",effects on testosterone-stimulated parental MDA-MB453,AR,No effects were observed
COc1ccccc1CCNC(=O)c1cc(Oc2ccccc2)ccc1NC(=O)c1ccc(O)c(Cl)c1 [2-[(3-chloro-4-hydroxybenzoyl)amino]-N-[2-(2-methoxyphenyl)ethyl]-5-phenoxybenzamide],IC50,17β-HSD3,~300 nM
CC1(C)[C@@H](O)CC[C@]2(C)[C@H]3C(=O)C=C4[C@@H]5C[C@@](C)(C(=O)O)CC[C@]5(C)CC[C@@]4(C)[C@]3(C)CC[C@@H]12 [18β-glycyrrhetinic acid],testosterone biosynthesis (testosterone levels),[1],inhibition of testosterone biosynthesis
same,effects on testosterone-stimulated parental MDA-MB453,AR,No effects were observed
